Reference: PMC6825211 (Nature Communications, 2019)
“And” between values parts separate entries of the source, which are not always exact repeats. Equal entries are not always repeated. “Also recorded” adds a separate entry of the source.

Assays:
[1] = molecular target: MEK1 (Homo sapiens, UniProt Q02750); assay: Nanosyn kinase profiling, mobility shift assay; format: biochemical
[2] = tested on: MLD–STZ C57BL/6J mice; assay: MLD–STZ model: random fed blood glucose; format: in vivo, mouse; parameters: AUC glycemia: unit not given here
Description: (§1) C57Bl/6J mice were injected with 40 mg/kg streptozotocin or citrate buffer for 5 consecutive days. […] In d, basal glucose values were normalized to 100%. e Insulin secretion measured from retro-orbital blood draw during an ipGTT measured before (0 min) and 15 min after glucose injection; data are expressed as the ratio of secreted insulin at 15 min/0 min (stimulatory index). f The ratio of secreted insulin and glucose is calculated at fed state. g–i Mice were killed at day 35. g β-cell mass (given as percentage of the whole pancreatic section from ten sections spanning the width of the pancreas) and quantitative analyses from triple staining for h TUNEL or i Ki67, insulin, and DAPI expressed as percentage of TUNEL- or Ki67-positive β-cells ±SEM. An average number of 2331 (h), or 26369 (i) β-cells were counted. n = 9 mice/group for (a); n = 4–12 for (b); n = 5–15 for (c) and (d); n = 12–19 for (e); n = 8–14 for (f); n = 4–9 for (g); n = 4–11 for (h); and n = 6–11 mice/groupfor (i); all from three independent experiments).

[3] = tested on: MLD–STZ C57BL/6J mice; assay: MLD–STZ model: insulin secretion during ipGTT (stimulatory index); format: in vivo, mouse; conditions: glucose-stimulated, i.p.
Description: as §1
For intraperitoneal glucose tolerance tests, mice were fasted 12 h overnight and injected i.p. with glucose (40%; B.Braun, Melsungen, Germany) at a dose of 1 g/kg body weight. […] Insulin secretion was measured before (0 min) and after (15 and 30 min) i.p. injection of glucose (2 g/kg) and measured by using ultrasensitive mouse Elisa kit (ALPCO Diagnostics, Salem, NH).

[4] = tested on: obese diabetic Lepr db/db mice; assay: db/db model: ipGTT; format: in vivo, mouse; parameters: AUC ipGTT: unit not given beside the values
Description: (§2) Data are representative of six mice per group (n = 6 for (a–f)). g–j Mice were killed at day 31. g β-cell mass (given as percentage of the whole pancreatic section from ten sections spanning the width of the pancreas; n = 5 mice/group) and quantitative analyses from triple stainings for (h) TUNEL, (i) Ki67, (j) pHH3, and (k) nuclear PDX1 expression, insulin, and DAPI expressed as percentage of TUNEL-, Ki67-, pHH3-, or nuclear PDX1-positive β-cells ± SEM. An average number of 13667 (h), 5937 (i), 7108 (j), or 4330 (k) β-cells were counted from n = 3–5 (h, i, k) or n = 5–6 (j) mice/group.
(§3) For intraperitoneal glucose tolerance tests, mice were fasted 12 h overnight and injected i.p. with glucose (40%; B.Braun, Melsungen, Germany) at a dose of 1 g/kg body weight. Blood samples were obtained at time points 0, 15, 30, 60, 90, and 120 min for glucose measurements by using a Glucometer. For i.p. insulin tolerance tests, mice were injected with 0.75 U/kg body weight recombinant human insulin (Novolin, Novo Nordisk) after 4–5-h fasting, and glucose concentration was determined with the Glucometer. Insulin secretion was measured before (0 min) and after (15 and 30 min) i.p. injection of glucose (2 g/kg) and measured by using ultrasensitive mouse Elisa kit (ALPCO Diagnostics, Salem, NH).

[5] = tested on: obese diabetic Lepr db/db mice; assay: db/db model: ipITT; format: in vivo, mouse; parameters: ipITT: unit not given here; conditions: for ipITT normalized to 100: MEAN
Description: as §2, §3

[6] = molecular target: MAP4K4 (Homo sapiens, UniProt O95819); assay: biochemical; conditions: read-out: % inhibition by neratinib
[7] = molecular target: DYRK1A (Homo sapiens, UniProt Q13627); assay: Nanosyn kinase profiling, mobility shift assay; conditions: read-out: % inhibition by neratinib
[8] = molecular target: JAK1 (Homo sapiens, UniProt P23458); assay: Nanosyn kinase profiling, mobility shift assay; conditions: read-out: % inhibition by neratinib
[9] = molecular target: JNK2 (Homo sapiens, UniProt P45984); assay: Nanosyn kinase profiling, mobility shift assay; conditions: read-out: % inhibition by neratinib
[10] = molecular target: P38-ALPHA (Homo sapiens, UniProt Q16539); assay: Nanosyn kinase profiling, mobility shift assay; conditions: read-out: % inhibition by neratinib
[11] = molecular target: PDK1 (Homo sapiens, UniProt O15530); assay: Nanosyn kinase profiling, mobility shift assay; conditions: read-out: % inhibition by neratinib
[12] = molecular target: SYK (Homo sapiens, UniProt P43405); assay: Nanosyn kinase profiling, mobility shift assay; conditions: read-out: % inhibition by neratinib
[13] = tested on: human islets; assay: β-cell apoptosis (TUNEL/insulin) after Ad-MST1 overexpression; conditions: for mean TUNEL/isolation/%: MST1 OE + NERA 10 μM 48 h
Description: Isolated human islets or INS-1E cells were infected with adenovirus carrying LacZ as control or MST1 or LATS2 (all Vector Biolabs), at a multiplicity of infection of 100 (human islets) or 20 (INS-1E) for 4 h[11].

Chain of MEK1 (Q02750 whole entry, species assumed): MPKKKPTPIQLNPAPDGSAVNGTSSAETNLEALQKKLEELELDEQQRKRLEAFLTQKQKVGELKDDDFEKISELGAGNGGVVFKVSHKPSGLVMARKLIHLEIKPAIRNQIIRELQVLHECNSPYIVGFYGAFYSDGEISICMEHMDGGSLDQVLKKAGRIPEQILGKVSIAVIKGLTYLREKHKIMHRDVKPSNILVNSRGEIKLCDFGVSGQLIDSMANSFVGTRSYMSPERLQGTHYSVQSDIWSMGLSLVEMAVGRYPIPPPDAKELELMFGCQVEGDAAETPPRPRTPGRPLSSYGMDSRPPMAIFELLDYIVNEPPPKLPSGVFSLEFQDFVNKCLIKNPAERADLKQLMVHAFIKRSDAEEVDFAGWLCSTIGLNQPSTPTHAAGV
Chain of PDK1 (O15530 whole entry): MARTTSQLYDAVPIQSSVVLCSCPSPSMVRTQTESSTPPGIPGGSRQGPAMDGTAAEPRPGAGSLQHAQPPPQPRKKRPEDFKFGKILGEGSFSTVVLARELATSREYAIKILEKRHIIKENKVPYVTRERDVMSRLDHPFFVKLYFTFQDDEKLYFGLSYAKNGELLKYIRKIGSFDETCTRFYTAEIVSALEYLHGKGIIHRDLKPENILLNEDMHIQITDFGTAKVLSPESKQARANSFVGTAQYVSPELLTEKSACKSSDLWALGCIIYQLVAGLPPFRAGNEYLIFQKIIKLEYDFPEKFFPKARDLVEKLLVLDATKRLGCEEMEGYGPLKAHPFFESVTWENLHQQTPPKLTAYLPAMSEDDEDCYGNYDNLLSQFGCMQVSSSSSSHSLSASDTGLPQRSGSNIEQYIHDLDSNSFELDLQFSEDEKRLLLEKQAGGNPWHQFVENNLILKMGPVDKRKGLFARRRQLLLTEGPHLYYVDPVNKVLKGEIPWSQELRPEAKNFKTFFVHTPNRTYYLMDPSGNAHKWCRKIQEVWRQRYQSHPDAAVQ
Chain of JAK1 (P23458 whole entry): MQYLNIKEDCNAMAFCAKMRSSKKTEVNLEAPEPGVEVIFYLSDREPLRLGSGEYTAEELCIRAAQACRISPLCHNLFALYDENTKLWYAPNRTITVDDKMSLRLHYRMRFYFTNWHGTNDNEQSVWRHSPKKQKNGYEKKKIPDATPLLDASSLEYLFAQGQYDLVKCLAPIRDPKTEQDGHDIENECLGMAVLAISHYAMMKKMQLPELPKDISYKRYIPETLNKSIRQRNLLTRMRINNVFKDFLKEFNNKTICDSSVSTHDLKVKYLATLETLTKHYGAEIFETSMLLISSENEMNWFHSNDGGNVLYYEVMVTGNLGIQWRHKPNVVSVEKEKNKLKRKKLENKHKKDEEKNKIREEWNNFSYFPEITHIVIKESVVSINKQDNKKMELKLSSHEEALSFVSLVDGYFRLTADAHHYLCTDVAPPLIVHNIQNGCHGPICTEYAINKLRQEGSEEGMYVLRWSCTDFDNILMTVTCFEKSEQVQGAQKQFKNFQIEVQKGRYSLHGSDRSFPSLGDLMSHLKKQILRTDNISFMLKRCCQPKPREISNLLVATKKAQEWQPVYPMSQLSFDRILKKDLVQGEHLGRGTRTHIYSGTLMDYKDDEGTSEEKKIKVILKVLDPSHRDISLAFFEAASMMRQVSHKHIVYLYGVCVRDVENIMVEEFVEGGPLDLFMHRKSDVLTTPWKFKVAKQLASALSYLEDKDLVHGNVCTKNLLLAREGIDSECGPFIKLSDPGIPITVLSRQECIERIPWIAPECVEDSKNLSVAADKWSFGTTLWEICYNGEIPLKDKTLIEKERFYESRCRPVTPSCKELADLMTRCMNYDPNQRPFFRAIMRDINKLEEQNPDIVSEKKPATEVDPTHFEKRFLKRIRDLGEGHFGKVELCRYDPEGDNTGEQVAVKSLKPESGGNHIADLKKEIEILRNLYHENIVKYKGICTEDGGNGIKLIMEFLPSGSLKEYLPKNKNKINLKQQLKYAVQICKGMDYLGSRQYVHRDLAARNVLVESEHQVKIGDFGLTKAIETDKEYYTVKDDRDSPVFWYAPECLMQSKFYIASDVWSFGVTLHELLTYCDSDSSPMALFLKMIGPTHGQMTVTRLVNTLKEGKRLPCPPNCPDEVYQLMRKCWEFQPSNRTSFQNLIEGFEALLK
Chain of MAP4K4 (O95819 whole entry, species assumed): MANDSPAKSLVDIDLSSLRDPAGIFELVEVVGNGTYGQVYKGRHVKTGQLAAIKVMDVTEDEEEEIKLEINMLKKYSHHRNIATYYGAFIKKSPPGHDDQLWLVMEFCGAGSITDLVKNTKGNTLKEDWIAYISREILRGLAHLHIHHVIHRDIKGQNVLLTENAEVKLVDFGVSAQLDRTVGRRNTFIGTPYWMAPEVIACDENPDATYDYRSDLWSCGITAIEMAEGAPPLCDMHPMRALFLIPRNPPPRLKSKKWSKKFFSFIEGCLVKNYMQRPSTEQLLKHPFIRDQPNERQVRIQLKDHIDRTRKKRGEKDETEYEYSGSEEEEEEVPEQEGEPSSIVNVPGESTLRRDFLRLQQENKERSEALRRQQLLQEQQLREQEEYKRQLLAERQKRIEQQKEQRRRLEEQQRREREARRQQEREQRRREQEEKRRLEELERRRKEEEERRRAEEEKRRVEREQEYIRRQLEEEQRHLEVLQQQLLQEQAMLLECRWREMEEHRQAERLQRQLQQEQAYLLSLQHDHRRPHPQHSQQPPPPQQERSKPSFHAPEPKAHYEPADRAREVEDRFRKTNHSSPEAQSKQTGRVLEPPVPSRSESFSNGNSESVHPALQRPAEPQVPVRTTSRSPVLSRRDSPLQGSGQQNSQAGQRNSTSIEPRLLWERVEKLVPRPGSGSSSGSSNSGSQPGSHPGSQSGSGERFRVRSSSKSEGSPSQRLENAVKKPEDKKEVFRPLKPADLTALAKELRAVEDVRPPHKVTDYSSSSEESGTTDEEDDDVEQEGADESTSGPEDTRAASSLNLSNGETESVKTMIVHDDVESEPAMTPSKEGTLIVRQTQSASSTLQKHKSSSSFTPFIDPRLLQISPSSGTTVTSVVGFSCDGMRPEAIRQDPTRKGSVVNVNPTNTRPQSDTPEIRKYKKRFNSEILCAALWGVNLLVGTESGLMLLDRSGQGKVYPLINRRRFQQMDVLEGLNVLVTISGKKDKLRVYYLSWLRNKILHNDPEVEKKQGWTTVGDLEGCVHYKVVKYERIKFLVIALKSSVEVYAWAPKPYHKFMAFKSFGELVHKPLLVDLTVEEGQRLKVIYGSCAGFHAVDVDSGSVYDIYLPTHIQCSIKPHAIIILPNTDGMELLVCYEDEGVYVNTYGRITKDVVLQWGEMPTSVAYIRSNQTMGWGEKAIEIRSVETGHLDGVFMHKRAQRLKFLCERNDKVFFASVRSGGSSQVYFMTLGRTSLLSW
Chain of JNK2 (P45984 whole entry): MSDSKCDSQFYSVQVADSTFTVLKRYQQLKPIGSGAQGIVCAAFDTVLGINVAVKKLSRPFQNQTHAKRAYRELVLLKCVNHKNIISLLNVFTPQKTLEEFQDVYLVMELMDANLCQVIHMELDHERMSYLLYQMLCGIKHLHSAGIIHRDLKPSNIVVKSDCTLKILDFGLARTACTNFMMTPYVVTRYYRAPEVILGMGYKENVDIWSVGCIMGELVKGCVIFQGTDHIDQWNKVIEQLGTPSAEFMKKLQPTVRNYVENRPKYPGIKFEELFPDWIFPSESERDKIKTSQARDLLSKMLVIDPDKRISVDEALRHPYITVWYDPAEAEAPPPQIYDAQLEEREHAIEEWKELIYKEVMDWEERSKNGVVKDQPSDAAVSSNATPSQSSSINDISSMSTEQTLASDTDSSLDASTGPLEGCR
Chain of P38-ALPHA (Q16539 whole entry): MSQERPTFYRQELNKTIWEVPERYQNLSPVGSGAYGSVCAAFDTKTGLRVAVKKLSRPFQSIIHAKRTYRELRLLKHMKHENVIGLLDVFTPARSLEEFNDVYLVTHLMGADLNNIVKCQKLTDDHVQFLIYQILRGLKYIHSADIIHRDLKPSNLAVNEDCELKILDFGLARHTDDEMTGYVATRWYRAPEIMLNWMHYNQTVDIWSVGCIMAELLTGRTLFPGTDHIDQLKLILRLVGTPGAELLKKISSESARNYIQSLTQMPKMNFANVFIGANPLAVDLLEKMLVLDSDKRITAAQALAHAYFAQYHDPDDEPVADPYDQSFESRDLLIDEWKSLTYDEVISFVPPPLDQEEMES

## CCOc1cc2ncc(C#N)c(Nc3ccc(OCc4ccccn4)c(Cl)c3)c2cc1NC(=O)/C=C/CN(C)C [neratinib]
[1]; 12 points dose response
  IC50: 1490 nM
[1]; read-out: % inhibition by neratinib
  inhibition at 10 µM: 73%
[2]; 5 mg/kg i.p. daily
  glycemia in nondiabetic control mice: no effect on glycemia
[2]; 5 mg/kg i.p. daily, 35 days
  glucose levels in STZ mice: lower glucose levels during the entire 35 days
[2]; NeraCtr (no STZ, neratinib 5 mg/kg i.p. daily), day 0, individual mice
  glycemia: 136 mg/dL and 120 mg/dL and 165 mg/dL and 122 mg/dL and 87 mg/dL and 80 mg/dL and 78 mg/dL and 130 mg/dL
[2]; NeraCtr, Mean
  AUC glycemia: 4215.5
[2]; NeraCtr, day 3, individual mice
  glycemia: 139 mg/dL and 103 mg/dL and 119 mg/dL and 117 mg/dL and 104 mg/dL and 116 mg/dL and 114 mg/dL and 149 mg/dL and 112 mg/dL
[2]; NeraCtr, day 7, individual mice
  glycemia: 100 mg/dL and 134 mg/dL and 130 mg/dL and 92 mg/dL and 120 mg/dL and 106 mg/dL and 114 mg/dL and 125 mg/dL and 111 mg/dL
[2]; NeraCtr, day 9, individual mice
  glycemia: 108 mg/dL and 93 mg/dL and 122 mg/dL and 89 mg/dL and 96 mg/dL and 109 mg/dL and 111 mg/dL and 90 mg/dL
[2]; NeraCtr, day 12, individual mice
  glycemia: 138 mg/dL and 112 mg/dL and 125 mg/dL and 100 mg/dL and 117 mg/dL and 105 mg/dL and 86 mg/dL and 133 mg/dL
[2]; NeraCtr, day 16, individual mice
  glycemia: 104 mg/dL and 92 mg/dL and 112 mg/dL and 106 mg/dL and 96 mg/dL and 88 mg/dL and 118 mg/dL and 93 mg/dL
[2]; NeraCtr, day 22, individual mice
  glycemia: 115 mg/dL and 102 mg/dL and 145 mg/dL and 144 mg/dL and 132 mg/dL and 113 mg/dL and 110 mg/dL and 103 mg/dL and 146 mg/dL
[2]; NeraCtr, day 28, individual mice
  glycemia: 109 mg/dL and 137 mg/dL and 141 mg/dL and 103 mg/dL and 110 mg/dL and 127 mg/dL and 112 mg/dL and 156 mg/dL and 106 mg/dL
[2]; NeraCtr, day 36, individual mice
  glycemia: 156 mg/dL and 132 mg/dL and 145 mg/dL and 146 mg/dL and 111 mg/dL and 114 mg/dL and 120 mg/dL and 109 mg/dL
[2]; NeraCtr, individual mice
  AUC glycemia: 4340.5 and 4217 and 4748 and 4310 and 3997 and 3944.5 and 3991 and 4247 and 4144.5
[2]; NeraSTZ (STZ + neratinib 5 mg/kg i.p. daily), day 0, individual mice
  glycemia: 112 mg/dL and 125 mg/dL and 148 mg/dL
[2]; NeraSTZ, Mean
  AUC glycemia: 7519.28
[2]; NeraSTZ, day 3, individual mice
  glycemia: 94 mg/dL and 102 mg/dL and 117 mg/dL
[2]; NeraSTZ, day 7, individual mice
  glycemia: 117 mg/dL and 131 mg/dL and 93 mg/dL
[2]; NeraSTZ, day 9, individual mice
  glycemia: 179 mg/dL and 138 mg/dL and 134 mg/dL
[2]; NeraSTZ, day 12, individual mice
  glycemia: 250 mg/dL and 310 mg/dL and 180 mg/dL
[2]; NeraSTZ, day 16, individual mice
  glycemia: 173 mg/dL and 303 mg/dL
[2]; NeraSTZ, day 22, individual mice
  glycemia: 209 mg/dL and 344 mg/dL
[2]; NeraSTZ, day 28, individual mice
  glycemia: 213 mg/dL and 229 mg/dL
[2]; NeraSTZ, day 36, individual mice
  glycemia: 214 mg/dL and 337 mg/dL and 230 mg/dL
[2]; NeraSTZ, individual mice
  AUC glycemia: 6636.5 and 8897.5 and 6783.5 and 7009 and 8879.5 and 5194.5 and 8003.5 and 8416 and 7853.5
[3]
  impaired insulin secretion in STZ-treated mice: significantly improved
[4]; db/db
  basal glucose levels after an overnight fast: unchanged
  glucose levels in ipGTT: lower glucose levels at all time points measured
[4]; insert 8b, individual mice
  AUC ipGTT: 30540 and 34635 and 37620 and 33592.5 and 28230 and 32955
[4]; insert 8b, mean
  MEAN AUC ipGTT: 32928.8
[4]; time after glc 0, MEAN
  ipGTT: 167.333 mg/dL
[4]; time after glc 0, individual mice
  ipGTT: 133 mg/dL and 142 mg/dL and 168 mg/dL and 224 mg/dL and 154 mg/dL and 183 mg/dL
[4]; time after glc 15, MEAN
  ipGTT: 424.5 mg/dL
[4]; time after glc 15, individual mice, 600 mg/dl is maximum reading
  ipGTT: 425 mg/dL and 445 mg/dL and 468 mg/dL and 413 mg/dL and 308 mg/dL and 488 mg/dL
[4]; time after glc 30, MEAN, 600 mg/dl is maximum reading
  ipGTT: 520.5 mg/dL
[4]; time after glc 30, individual mice, 600 mg/dl is maximum reading
  ipGTT: 481 mg/dL and ≥ 600 mg/dL and 476 mg/dL and 485 mg/dL
[4]; time after glc 60, MEAN
  ipGTT: 340.167 mg/dL
[4]; time after glc 60, individual mice
  ipGTT: 301 mg/dL and 355 mg/dL and 388 mg/dL and 367 mg/dL and 321 mg/dL and 309 mg/dL
[4]; time after glc 90, MEAN
  ipGTT: 226 mg/dL
[4]; time after glc 90, individual mice
  ipGTT: 221 mg/dL and 183 mg/dL and 280 mg/dL and 259 mg/dL and 141 mg/dL and 272 mg/dL
[4]; time after glc 120, MEAN
  ipGTT: 170.833 mg/dL
[4]; time after glc 120, individual mice
  ipGTT: 191 mg/dL and 139 mg/dL and 210 mg/dL and 133 mg/dL and 213 mg/dL
[5]; 0 min after ins
  ipITT normalized to 100: 100
[5]; 15 min after ins
  ipITT normalized to 100: 132.381
[5]; 30 min after ins
  ipITT normalized to 100: 111.751
[5]; 60 min after ins
  ipITT normalized to 100: 88.1279
[5]; 90 min after ins
  ipITT normalized to 100: 87.8414
[5]; db/db
  basal glucose lower in neratinib-treated mice after a short fast of 4 h: 20%
  response to insulin challenge (ipITT): modestly reduced ability to lower their glucose levels
[5]; insert 8d, normalized to 100, individual mice
  AUC ipITT: 11197.2 and 9260.59 and 10559.8 and 6670.17 and 8196.06 and 9385.6
[5]; insert 8d, normalized to 100, mean
  MEAN AUC ipITT: 9211.58
[5]; time 0, MEAN
  ipITT: 336.667
[5]; time 0, individual mice
  ipITT: 327 and 354 and 301 and 357 and 292 and 389
[5]; time 15, MEAN
  ipITT: 444.667
[5]; time 15, individual mice
  ipITT: 477 and 480 and 417 and 432 and 371 and 491
[5]; time 30, MEAN
  ipITT: 371.5
[5]; time 30, individual mice
  ipITT: 455 and 383 and 437 and 224 and 323 and 407
[5]; time 60, MEAN
  ipITT: 297.167
[5]; time 60, individual mice
  ipITT: 397 and 342 and 303 and 176 and 182 and 383
[5]; time 90, MEAN
  ipITT: 295.833
[5]; time 90, individual mice
  ipITT: 324 and 270 and 290 and 289 and 230 and 372
[6]
  inhibition at 10 µM: 73%
[7]
  inhibition at 10 µM: 3%
[8]
  inhibition at 10 µM: 5%
[9]
  inhibition at 10 µM: 84%
[10]
  inhibition at 10 µM: 15%
[11]
  inhibition at 10 µM: 6%
[12]
  inhibition at 10 µM: -14%
[13]; 10 μM, 48 h
  β-cell apoptosis induced by MST1 overexpression: significantly blocked; also recorded: almost fully blocked
[13]; mean, LacZ = 100
  mean TUNEL/isolation/%: 126.263%
[13]; single isolations, LacZ mean = 100
  mean TUNEL/isolation/%: 100% and 145.455% and 133.333%
